Measured values taken from patent US5001156A, “Lipophilic quaternary ammonium salicylates, their use in cosmetics and in dermopharmacy” (priority 1986, dated 1991).

Test system: Propionibacterium acnes strain ATCC 6919
Test: Minimal Inhibitory Concentration (MIC) by the dilution method;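 note: MIC reported in µg/ml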
Format: cell-based
Settings: Propionibacterium acnes ATCC 6919, DMSO

First: N-dodecyl-N-methylmorpholinium 5-decanoylsalicylate [Compound 21]
Second: N-benzyl-N,N-dimethyl-N-hexadecylammonium 5-decanoylsalicylate [Compound 11]
The MIC of the first is 6-fold higher: 9 µg/mL for the first, 1.5 µg/mL for the second.

Compared with “N-hexadecyl-N,N,N-trimethylammonium 5-decanoylsalicylate [Compound 5]”, “N-hexadecyl-N-methylimidazolinium 5-dodecanoylsalicylate [Compound 20]” is 5.9-fold higher in MIC: 2.3 µg/mL for the first, 13.5 µg/mL for the second.

“N-hexadecylpyridinium 5-dodecanoylsalicylate hydrate [Compound 9]” and “N-benzyl-N,N-dimethyl-N-hexadecylammonium 5-dodecanoylsalicylate [Compound 12]” are within 1.5-fold of each other in MIC: 1.2 µg/mL for the first, 1 µg/mL for the second.

Compared with CCCCCCCCCCCC(=O)c1ccc(O)c(C(=O)[O-])c1.CCCCCCCCCCCCCCCC[N+]12CCN(CC1)CC2 [Compound 23, 1'-azonia-4'-azabicyclo[2.2.2]octylhexadecane 5-dodecanoylsalicylate], “N-hexadecylpyridinium 5-octanoylsalicylate monohydrate [Compound 7]” is 1.6-fold higher in MIC: 1.5 µg/mL for the first, 2.4 µg/mL for the second.

Going from “trimethyl-(β-hydroxyethyl)ammonium 5-decanoylsalicylate [Compound 17]” to CC(C)(C)CC(C)(C)c1ccc(OCCOCC[N+](C)(C)Cc2ccccc2)cc1.CCCCCCCC(=O)c1ccc(O)c(C(=O)[O-])c1 [Compound 24, benzethonium 5-octanoylsalicylate], the MIC falls from 11 µg/mL to 1.2 µg/mL (9.2-fold).

Compared with “dimethylethyldodecylammonium 5-decanoylsalicylate [Compound 16]”, “N-benzyl-N,N-dimethyl-N-hexadecylammonium 5-octanoylsalicylate [Compound 10]” is 11-fold lower in MIC: 6.2 µg/mL for the first, 0.54 µg/mL for the second.

First: N-hexadecyl-N,N,N-trimethylammonium 5-octanoylsalicylate [Compound 4]
Second: N-methyl-N-octylpiperidinium 5-dodecanoylsalicylate [Compound 22]
The MIC of the first is 1.6-fold higher: 8 µg/mL for the first, 4.9 µg/mL for the second.

Going from “N-Hexadecyl-N,N,N-trimethylammonium salicylate [Compound 1, reference compound]” to “N-benzyl-N,N,N-trimethylammonium 5-decanoylsalicylate [Compound 13]”, the MIC falls from 21 µg/mL to 3.2 µg/mL (6.6-fold).

“N-hexadecyl-N,N-dimethyl-N-(β-hydroxyethyl)ammonium 5-decanoylsalicylate [Compound 14]” and CCCCCCCCCCCC(=O)c1ccc(O)c(C(=O)[O-])c1.C[N+](C)(C)C [Compound 15, N,N,N,N-tetramethylammonium 5-dodecanoylsalicylate] are within 1.5-fold of each other in MIC: 3.6 µg/mL for the first, 2.5 µg/mL for the second.

Compared with “N-hexadecyl-N,N,N-trimethylammonium 5-dodecanoylsalicylate [Compound 6]”, “Hexadecyltrimethylammonium stearate [Compound 3, reference compound]” is 7.8-fold higher in MIC: 3.2 µg/mL for the first, 25 µg/mL for the second.

Compared with “trimethyl-(β-hydroxyethyl)ammonium 5-dodecanoylsalicylate [Compound 18]”, “Hexadecyltrimethylammonium laurate [Compound 2, reference compound]” is 5.4-fold higher in MIC: 4.8 µg/mL for the first, 26 µg/mL for the second.

First: N-hexadecylpyridinium 5-decanoylsalicylate sesquihydrate [Compound 8]
Second: CC(C)(C)CC(C)(C)c1ccc(OCCOCC[N+](C)(C)Cc2ccccc2)cc1.CCCCCCCCCCCC(=O)c1ccc([O-])c(C(=O)O)c1 [Compound 25, benzethonium 5-dodecanoylsalicylate]
The MIC of the first is 1.7-fold lower: 1.2 µg/mL for the first, 2 µg/mL for the second.

With “N-(2-Hydroxyethyl)-N,N,N-trimethylammonium salicylate [Compound 19, reference compound]” the MIC was over 100 µg/mL.
